Seven compounds from ChEMBL document CHEMBL5390272, “Discovery of a potent and selective human AC2 inhibitor based on 7-deazapurine analogues of adefovir” (Bioorg Med Chem, 2023) can be followed below.

As a reminder, the IC50 is the midpoint of a concentration-inhibition curve.

The target of data set [1] is T1, Calmodulin-sensitive adenylate cyclase (Bacillus anthracis, UniProt P40136).
T1 sequence (P40136 whole entry): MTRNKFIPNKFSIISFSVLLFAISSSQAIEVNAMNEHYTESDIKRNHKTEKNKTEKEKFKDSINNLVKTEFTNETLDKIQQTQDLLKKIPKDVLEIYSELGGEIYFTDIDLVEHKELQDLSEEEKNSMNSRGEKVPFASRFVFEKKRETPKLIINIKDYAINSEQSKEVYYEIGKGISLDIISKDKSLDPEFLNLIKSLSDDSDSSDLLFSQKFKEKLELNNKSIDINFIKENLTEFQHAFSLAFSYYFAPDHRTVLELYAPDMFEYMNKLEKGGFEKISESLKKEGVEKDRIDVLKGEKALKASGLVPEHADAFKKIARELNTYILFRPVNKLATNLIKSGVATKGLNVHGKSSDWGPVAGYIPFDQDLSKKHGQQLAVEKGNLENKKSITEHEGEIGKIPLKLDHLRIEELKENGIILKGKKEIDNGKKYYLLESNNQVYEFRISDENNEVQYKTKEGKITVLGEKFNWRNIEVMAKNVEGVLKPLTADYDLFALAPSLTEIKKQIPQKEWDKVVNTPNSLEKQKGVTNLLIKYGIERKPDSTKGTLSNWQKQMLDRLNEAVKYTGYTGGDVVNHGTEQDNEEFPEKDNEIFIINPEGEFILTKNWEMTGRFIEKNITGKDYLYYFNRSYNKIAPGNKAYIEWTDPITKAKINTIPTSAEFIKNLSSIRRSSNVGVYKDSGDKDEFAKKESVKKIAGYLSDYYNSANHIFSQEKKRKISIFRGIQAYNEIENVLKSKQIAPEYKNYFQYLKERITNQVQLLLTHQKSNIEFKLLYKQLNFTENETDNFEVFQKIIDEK
Description: Inhibition of Bacillus anthracis Edema factor.

The nature of data set [2]: Inhibition of Bordetella pertussis Adenylate cyclase toxin in mouse J774.A1 cells preincubated for 5 hrs followed by ACT addition and measured after 30 mins by CatchPointcAMP immunoassay method. Type of data set: cell-based.
Data set [3] is described as follows: Cytotoxicity against mouse J774.A1 cells assessed as cell viability at 10 uM incubated for 5 hrs by Cell Titer-Glo Luminescent Cell Viability assay relative to control. To be noted: read-out: Activity. The format is toxicity, cell-based. In general terms: In ATP-based viability assays light output follows the ATP content of the culture.
The subject of data set [4] is HepG2. Description: Cytotoxicity against human HepG2 cells by CellTiter-Glo 2.0 assay. Type of data set: functional, cell-based.
Data set [5] has as its system HEK293. Description: Cytotoxicity against AC1 expressed HEK293 cells by CellTiter-Glo 2.0 assay relative to control. The format is toxicity, cell-based. Set-up: concentration or dose not given beside the values. Conditions: human.
Data set [6] concerns HeLa S3. Description: Cytotoxicity against human HeLa S3 cells by CellTiter-Glo 2.0 assay. The format is functional, cell-based.
Data set [7] concerns the target D(1A) dopamine receptor (Homo sapiens, UniProt P21728). Description: Inhibition of human D1 receptor expressed in HEK293 cells assessed as cyclic AMP accumulation incubated for 1 hr in presence of dopamine by HTR-FRET assay. Type of data set: functional, cell-based.
For data set [8], the system named is NHDF. Put plainly: Cytotoxicity against human NHDF cells by CellTiter-Glo 2.0 assay. Type of data set: toxicity, cell-based.
In data set [9] the test system is HL-60. Put plainly: Cytotoxicity against human HL-60 cells by CellTiter-Glo 2.0 assay. Type of data set: functional, cell-based.
Data set [10] concerns the target Adenylate cyclase type 2 (Homo sapiens, UniProt Q08462). Description: Inhibition of human adenylate cyclase 2 expressed in ACdelta 3/6 knockout HEK293 cells assessed as cyclic AMP accumulation incubated for 30 min followed by FSK stimulation by HTR-FRET assay. The format is cell-based.
Data set [11] has as its system CCRF-CEM. Description: Cytotoxicity against human CCRF-CEM cells by CellTiter-Glo 2.0 assay. Type of data set: functional, cell-based.

SMILES strings stand for the structures.

Chain of Adenylate cyclase type 2 (Q08462 whole entry): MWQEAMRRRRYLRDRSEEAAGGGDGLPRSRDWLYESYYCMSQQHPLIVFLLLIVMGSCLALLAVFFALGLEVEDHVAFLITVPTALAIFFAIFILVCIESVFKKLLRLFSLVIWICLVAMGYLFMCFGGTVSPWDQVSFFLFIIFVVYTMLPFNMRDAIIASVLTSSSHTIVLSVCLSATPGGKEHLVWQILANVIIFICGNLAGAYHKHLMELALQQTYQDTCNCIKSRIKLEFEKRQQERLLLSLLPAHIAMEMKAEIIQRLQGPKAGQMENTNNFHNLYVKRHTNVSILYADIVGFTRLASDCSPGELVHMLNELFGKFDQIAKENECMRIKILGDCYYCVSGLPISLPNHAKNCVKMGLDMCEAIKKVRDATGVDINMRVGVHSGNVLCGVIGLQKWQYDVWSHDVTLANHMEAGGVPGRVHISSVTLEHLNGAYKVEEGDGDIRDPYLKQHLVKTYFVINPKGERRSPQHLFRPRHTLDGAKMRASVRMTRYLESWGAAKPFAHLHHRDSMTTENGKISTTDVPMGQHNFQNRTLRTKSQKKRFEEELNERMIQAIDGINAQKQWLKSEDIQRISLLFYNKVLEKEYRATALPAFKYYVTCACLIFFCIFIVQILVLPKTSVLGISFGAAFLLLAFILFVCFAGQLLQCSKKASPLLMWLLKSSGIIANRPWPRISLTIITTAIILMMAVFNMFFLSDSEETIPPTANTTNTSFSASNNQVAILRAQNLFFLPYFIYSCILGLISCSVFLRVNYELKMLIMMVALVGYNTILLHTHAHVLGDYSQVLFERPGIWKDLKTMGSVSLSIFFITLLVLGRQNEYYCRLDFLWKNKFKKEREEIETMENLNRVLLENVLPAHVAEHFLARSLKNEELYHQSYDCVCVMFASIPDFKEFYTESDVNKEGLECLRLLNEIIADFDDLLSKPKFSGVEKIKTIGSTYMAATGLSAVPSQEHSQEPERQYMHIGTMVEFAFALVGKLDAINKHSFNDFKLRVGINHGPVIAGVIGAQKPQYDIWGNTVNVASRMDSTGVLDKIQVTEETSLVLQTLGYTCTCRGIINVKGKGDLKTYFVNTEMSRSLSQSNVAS
Chain of D(1A) dopamine receptor (P21728 whole entry): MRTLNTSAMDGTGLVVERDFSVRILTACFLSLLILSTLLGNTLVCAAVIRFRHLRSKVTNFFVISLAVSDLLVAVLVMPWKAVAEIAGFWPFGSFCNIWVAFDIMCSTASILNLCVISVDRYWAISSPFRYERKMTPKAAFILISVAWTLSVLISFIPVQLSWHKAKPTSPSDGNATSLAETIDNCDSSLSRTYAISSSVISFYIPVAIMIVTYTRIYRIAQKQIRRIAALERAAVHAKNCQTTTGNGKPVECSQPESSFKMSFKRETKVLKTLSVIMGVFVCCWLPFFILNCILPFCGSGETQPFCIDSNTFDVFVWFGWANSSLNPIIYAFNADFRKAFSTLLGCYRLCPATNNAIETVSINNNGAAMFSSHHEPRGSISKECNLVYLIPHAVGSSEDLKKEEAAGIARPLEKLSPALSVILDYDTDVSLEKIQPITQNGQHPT

As to `Cc1cn(CCOCP(=O)(O)OP(=O)(O)OP(=O)(O)O)c2ncnc(N)c12`, the IC50 in [1] turned out to be 0.108 µM; in [2], 0.062 µM.
The like results for `COc1ccc(-c2cn(CCOCP(=O)(O)OP(=O)(O)OP(=O)(O)O)c3ncnc(N)c23)cc1` were, in that order, 0.0884 µM and 0.186 µM.
The compound `Nc1ncnc2c1ncn2CCOCP(=O)(O)OP(=O)(O)OP(=O)(O)O` [ADEFOVIR DIPHOSPHATE] came in with an IC50 in data set [1] of 0.0135 µM.
In the case of `Nc1ncnc2c1c(-c1ccccn1)cn2CCOCP(=O)(O)OP(=O)(O)OP(=O)(O)O`, the concentration for half-maximal inhibition (IC50) in data set [1] was 0.0508 µM; in data set [2] it was 0.108 µM.
On to `CC(C)OC(=O)[C@H](Cc1ccccc1)NP(=O)(COCCn1cc(-c2cccc(-c3noc(=O)[nH]3)c2)c2c(N)ncnc21)N[C@@H](Cc1ccccc1)C(=O)OC(C)C`, for which the viability at 5 h, 10 µM in data set [3] was found to be 114%. Also, the IC50 in [4] was more than 10 µM; in data set [6], more than 10 µM; in data set [7], more than 10 µM; in data set [8], more than 10 µM; in data set [9], 10 µM; in [10], 4.45 µM. Moreover, the IC50 in data set [11] and in data set [2] was more than 10 µM in each case. In addition, in [5], the Activity was found to be 89%.
Take `CC(C)OC(=O)[C@H](Cc1ccccc1)NP(=O)(COCCn1cc(-c2cccc(C(N)=O)c2)c2c(N)ncnc21)N[C@@H](Cc1ccccc1)C(=O)OC(C)C`: in data set [3], the viability at 5 h, 10 µM worked out at 85%. Further, the IC50 in data set [4] is more than 10 µM; in [6], more than 10 µM; in data set [8] it was more than 10 µM; in data set [9] it was 5.75 µM; in [11] it was more than 10 µM; in data set [2], 2.5 µM. The Activity in [5] was 94%.
As to `CC(C)OC(=O)[C@H](Cc1ccccc1)NP(=O)(COCCn1cc(-c2ccccc2)c2c(N)ncnc21)N[C@@H](Cc1ccccc1)C(=O)OC(C)C`, in [3], the viability at 5 h, 10 µM came out at 82%. For the same compound, the half-maximal inhibitory concentration (IC50) in data set [4] is 6.58 µM; in [6] it was 5.28 µM; in data set [8], more than 10 µM; in data set [9], 4.73 µM; in data set [11] it was 4.74 µM; in data set [2], 13.3 µM. Besides, the Activity in data set [5] was -18%.
